Data taken from US10059668B2 (Mirati Therapeutics, Inc., priority 2015, dated 2018).

What was measured:
[1] = biological target: purified N-terminal truncated human LSD1 enzyme (aa 151-852) (Homo sapiens (Human), UniProt O60341); experiment: LSD1 fluorescence coupling enzymatic assay (horseradish peroxidase/Amplex Red); assay type: biochemical; settings: 50 nM LSD1, 30 min pre-incubation, 10 μM histone 3.3 peptide (aa 1-21), 10-point dose-response; read-out: IC50 (nM), Inhibition of LSD1 Activity
Experimental: Briefly, compounds of the present invention were solubilized in DMSO and a series of 10, three-fold serial dilutions were made for each compound in 15% DMSO. The initial starting concentration for the serial dilutions of each compound was 10 μM.
An aliquot of each serial dilution of test compound was added to a 96 well plate containing 50 nM purified N-truncated LSD1 enzyme (RBC Cat# PDM-11-350), 50 mM Tris-HCl, pH 7.5, 0.05% CHAPS and 1% DMSO in a 10 microliter reaction volume. The plate was pre-incubated at room temperature for 30 min to which 10 μM of histone 3.3 peptide (aa 1-21) was added to initiate the enzymatic reaction. The reaction mixture was incubated at room temperature for one hour. […] The IC50 value for each compound was determined from each 10-point dose-response curve using GraphPad Prism 4 software with a sigmodial dose response.

MV4-11 cells = experiment: Inhibition of LSD1-mediated cellular proliferation, CellTiter Glo luminescence assay; assay type: cell-based, human; settings: Day 7, cell viability by CellTiter Glo
Experimental: The MV4-11 cell line cell line was established from the blast cells of a person with biphenotypic B-myelomonocytic leukemia.
Inhibition of LSD1-mediated cellular proliferation by compounds of Formula (I) was measured in a CellTiter Glo luminescence assay (Promega Corp), which determines the number of viable cells by quantitating the amount of ATP, using a BMG LabTech CLARIOStar instrument in accordance with the manufacturer's instructions. Briefly, MV4-11 cells were plated at a density of 1000 cells/90 μl/well in 96 well culture plates and cultured in IMDM medium (Gibco) supplemented with 10% fetal bovine serum (FBS) and 1% penicillin and 1% streptomycin at 37° C. […] Control samples lacking test compound or cells were processed in parallel. The plates were incubated at 37° C. for four days and thereafter 50 μl fresh medium containing the same concentration of test compound was added. The plates were incubated for an additional three days (Day 7). A baseline measurement, as described below, was taken for a time zero point at Day 0.
At Day 7, the supernatant was removed by aspiration and the plate was allowed to equilibrate to room temperature (˜15 min). The cells were lysed using 45 μl (30 μl for Day 0) of Cell Titer Glo reagent (Promega Corp). The plates were shaken for two minutes and incubated at room temperature for 30 minutes. The degree of inhibition of cell viability was determined using a spectrophotometric readout by measuring the luminescence at 340 nm and the EC50 concentration for each compound was calculated using Graph Pad Prism 4 software.

Row | SMILES | IC50 [1] [nM] | EC50 (MV4-11 cells; Homo sapiens, 168 h) [nM] | EC50 (MV4-11 cells) [nM]
1 | CS(=O)(=O)NC(=O)c1ccc(CN2CCC(N[C@@H]3C[C@H]3c3ccccc3)CC2)cc1 [Example 34, N-(Methylsulfonyl)-4-((4-(((1R,2S)-2-phenylcyclopropyl)amino)piperidin-1-yl)methyl)benzamide] | 3 | 60 | 
2 | C(=C\c1cccc(CN2CCC(N[C@@H]3C[C@H]3c3ccccc3)CC2)c1)/c1ccccc1 (relative stereo) [Example 13, N-(trans-2-phenylcyclopropyl)-1-(3-((E)-styryl)benzyl)piperidin-4-amine] | 17 | 37 | 
3 | C(=C\c1ccc(CN2CCC(N[C@@H]3C[C@H]3c3ccccc3)CC2)cc1)/c1ccccc1 (relative stereo) [Example 12] | 23 |  | 32
4 | C(=C\c1nnn[nH]1)/c1cccc(CN2CCC(N[C@@H]3C[C@H]3c3ccccc3)CC2)c1 (relative stereo) [Example 14] | 118 |  | 174
5 | CS(=O)(=O)NC(=O)Cc1ccc(CN2CCC(CN[C@@H]3C[C@H]3c3ccccc3)CC2)cc1 [Example 57] | 44 | 1 | 
6 | CONC(=O)/C=C/c1ccc(CN2CCC(N[C@@H]3C[C@H]3c3ccccc3)CC2)cc1 (relative stereo) [Example 1, (E)-N-Methoxy-3-(4-((4-(((trans)-2-phenylcyclopropyl)amino)piperidin-1-yl)methyl)phenyl)acrylamide] | 15 |  | 
7 | O=C(/C=C/c1ccc(CN2CCC(CN[C@@H]3C[C@H]3c3ccccc3)CC2)cc1)NS(=O)(=O)c1ccccc1 [Example 48, (E)-3-(4-((4-((((1R,2S)-2-Phenylcyclopropyl)amino)methyl)piperidin-1-yl)methyl)phenyl)-N-(phenylsulfonyl)acrylamide] | 33 | 9 | 
8 | CS(=O)(=O)NC(=O)c1ccc(CN2CCC(CN[C@@H]3C[C@H]3c3ccccc3)CC2)cc1 [Example 53, N-(Methylsulfonyl)-4-((4-((((1R,2S)-2-phenylcyclopropyl)amino)methyl)piperidin-1-yl)methyl)benzamide] | 27 | 19 | 
9 | CS(=O)(=O)NC(=O)Cc1ccc(CN2CCC(N[C@@H]3C[C@H]3c3ccccc3)CC2)cc1 [Example 35, N-(Methylsulfonyl)-2-(4-((4-(((1R,2S)-2-phenylcyclopropyl)amino)piperidin-1-yl)methyl)phenyl)acetamide] | 25 | 30 | 
10 | CS(=O)(=O)NC(=O)/C=C/c1ccc(CN2CCC(N[C@@H]3C[C@H]3c3ccccc3)CC2)cc1 (relative stereo) [Example 2, (E)-N-(Methylsulfonyl)-3-(4-((4-(((trans)-2-phenylcyclopropyl)amino)piperidin-1-yl)methyl)phenyl)acrylamide] | 30 |  | 
11 | CS(=O)(=O)NC(=O)/C=C/c1ccc(CN2CCC(N[C@@H]3C[C@H]3c3ccccc3)CC2)cc1 [Example 15, (E)-N-(Methylsulfonyl)-3-(4-((4-(((1R,2S)-2-phenylcyclopropyl)amino)piperidin-1-yl)methyl)phenyl)acrylamide] | 10 |  | 
12 | CS(=O)(=O)NC(=O)/C=C/c1ccc(CN2CCC(CN[C@@H]3C[C@H]3c3ccccc3)CC2)cc1 [Example 49, (E)-N-(methylsulfonyl)-3-(4-((4-((((1R,2S)-2-phenylcyclopropyl)amino)methyl)piperidin-1-yl)methyl)phenyl)acrylamide] |  | 26 | 
